Here are results for twelve molecules from PMC9024893, “1,2,4-Trioxolane and 1,2,4,5-Tetraoxane Endoperoxides against Old-World Leishmania Parasites: In Vitro Activity and Mode of Action” (Pharmaceuticals, 2022).

Data set [1] deals with L. donovani BD14 promastigotes. Kind of data set: Promastigotes susceptibility assay (MTT), L. donovani. The data set is classed as cell-based. The settings on record: Leishmania donovani, read-out: IC50 ± SD, L. donovani promastigotes. The procedure:
(§1) Promastigote forms of strains of L. infantum (MHOM/PT/1988/IMT151) and L. donovani (MHOM/BD/2006/BD14) were cultured at 24 °C ± 1 °C in M199 medium (Sigma) supplemented with 20% foetal bovine serum (FBS, Sigma) and 1% penicillin-streptomycin (Sigma). L. infantum strain belongs to IHMT, Portugal cryobank collection and the L. donovani strain was kindly provided by Dr. Katrin Kuhls, Technical University of Applied Sciences Wildau, Germany. Promastigotes used for the experiments had 7 to 12 in vitro passages in culture after isolation from mice, in order to keep virulence, and were used when the stationary phase of growth was reached (day 5 to 6), corresponding to the highest promastigotes density.
(§2) For the determination of the antileishmanial activity and IC50, promastigotes of L. infantum and L. donovani were plated in 96-well flat bottom culture plates at a concentration of 5 × 10^6 parasites/mL and incubated with six serial concentrations of each compound (Table 3), in four replicates, including the control drugs, amphotericin B, miltefosine and pentamidine. One untreated control (parasites with M199 medium plus 0.5% DMSO as vehicle solution) and one blank (M199 medium alone) were also plated out in quadruplicate. After 48 h incubation at 24 °C ± 1 °C, the inhibitory activity of the compounds was evaluated using the MTT, as previously described, with an additional 4 h incubation at 36 °C. Results were expressed in terms of percentage of parasite viability relative to nontreated control and IC50 was calculated fitting the data as a non-linear regression with variable slope using a dose-response inhibitory model, in the GraphPad Prism V 8.0 program. Each compound was tested in three independent assays. […]

For data set [2], the system named is L. infantum IMT151 promastigotes. Kind of data set: Promastigotes susceptibility assay (MTT), L. infantum. As to conditions: Leishmania infantum, read-out: IC50 ± SD, L. infantum promastigotes. The data set is classed as cell-based. The procedure: as §1, §2
A short description of data set [3]: Cytotoxicity assay (MTT), J774A.1 cell line. Format: cell-based. The settings on record: mouse. The procedure:
(§3) Adherent BALB/c mouse macrophage cell line J774A.1 (ATCC® TIB 67™) and suspension human acute monocytic leukemic cell line THP-1 (ATCC® TIB-202™) were purchased from DSMZ, Germany were cultured and maintained in DMEM medium (Gibco) and RPMI 1640 (Sigma), respectively, supplemented with 10% FBS, 1% penicillin-streptomycin (Sigma) and L-glutamine 200 mM (Sigma), at 37 °C, 5% CO2.
(§4) Cell lines J774A.1 and THP-1 were used to estimate CC50 of the peroxides. Cells were plated in 96-well flat bottom culture plates (VWR) at 5 × 10^5 cells/mL. The monocytic cell line THP-1 was differentiated in RPMI medium with phorbol myristate acetate (PMA) (25 ng/mL; Sigma) for 24 h, followed by a washing step with RPMI medium. Six serial concentrations of the compounds (Table 3) were added in four replicates and the plates were incubated at 37 °C ± 1 °C, 5% CO2 for 48 h. An untreated control (cells in DMEM or RPMI medium plus 0.5% DMSO as vehicle) and blank (medium alone) were plated out in quadruplicate. After the incubation period, 20 µL/well of MTT [3-(4,5-dimethylthiazol-2-yl)-2,5-diphenyltetrazolium bromide] was added to a final concentration of 5 µg/mL in 1× phosphate-buffered saline (PBS, Merck), with an additional 4 h incubation at 36 °C, as previously described. The formazan salts were resuspended in 2-propanol (Merck) and the cell viability was determined by measuring absorbance with a Synergy ™HTX Multi Mode Microplate Reader at 595 nm (Dynex Technologies). The CC50 values were calculated fitting the data as a non-linear regression with variable slope using a dose-response inhibitory model, in the GraphPad Prism V 8.0 program. Each compound was tested in three independent assays.

The nature of data set [4]: Cytotoxicity assay (MTT), PMA-differentiated THP-1 cell line. The settings on record: human. Format: cell-based. The procedure: as §3, §4
For data set [5], the system named is L. infantum promastigotes. The data set is described as follows: Promastigotes DNA fragmentation (agarose gel). The data set is classed as cell-based, Leishmania infantum. As to conditions: IC50 concentrations, 24 h. The procedure: 2 mM H2O2 was used as DNA damage inductor and non-treated cells were used as control. After centrifugation (10 min, 800× g) DNA was extracted using a commercial extraction kit (High Template DNA Preparation Kit, Roche, Germany), according to the manufacturer’s instructions.

Data set [6] relates to L. donovani BD14 intracellular amastigotes. Kind of data set: Intracellular amastigotes assay in J774A.1 macrophages, L. donovani. The data set is classed as cell-based. As to conditions: Leishmania donovani, read-out: IC50 ± SD, L. donovani intracellular amastigotes. The procedure:
(§5) The intracellular assay using the macrophage J774A.1 cell line was performed with the compounds that presented best SI on the promastigote’s susceptibility assay. J774A.1 cells were adjusted to 2.5 × 10^5 cells/mL in supplemented DMEM medium. 200 μL/well of the cell suspension was placed in 16 well Lab Tek culture glass slides (Nunc), and incubated at 37 °C ± 1 °C, 5% CO2, for 3 h, to enable the cells to adhere to the slides. After a washing step with DMEM to discard non-attached cells, the cells were infected with 2.5 × 10^6 cells/mL promastigotes in a 10:1 parasite-host cell proportion for 24 h. Compounds and control drugs were added in two replicates of six serial concentrations (Table 3). As negative control, macrophages were cultivated in medium and DMSO, as vehicle solution (0.5% v/v). Slides were incubated for 48 h at the same temperature. After a washing step with 1× PBS (Sigma), slides were fixed and stained, and the infection index was calculated according to [34] by counting the number of intracellular amastigotes per 100 macrophages, in treated and untreated cells. Two independent experiments were performed to determine the amastigotes IC50 of each compound, which was calculated by fitting the data as a non-linear regression with variable slope using a dose-response inhibitory model, in the GraphPad Prism V 8.0 program. SI was determined as described above.

Data set [7] has as its system L. infantum IMT151 intracellular amastigotes. The data set is described as follows: Intracellular amastigotes assay in J774A.1 macrophages, L. infantum. The data set is classed as cell-based. The settings on record: Leishmania infantum, read-out: IC50 ± SD, L. infantum intracellular amastigotes. The procedure: as §5
[8] abbreviates: 48 h incubation, MTT, read-out: CC50 ± SD, J774A.1 Cell Line.
The mark [9] stands for this setting: 48 h incubation, MTT, read-out: CC50 ± SD, THP-1 Cell Line.
[10] abbreviates: J774A.1 macrophage cells, 48 h incubation, MTT, read-out: CC50 ± SD, J774A.1 Cell Line.
Where [11] appears, read: PMA-differentiated THP-1 cells, 48 h incubation, MTT, read-out: CC50 ± SD, THP-1 Cell Line.
The mark [12] stands for this setting: J774.A1, 48 h incubation, J774A.1 host cells.

Like-named read-outs stand apart in the source and are kept apart here.

For `O=C1CCC2(CC1)OOC1(O2)C2CC3CC(C2)CC1C3` (stereo not drawn) [LC50, Dispiro[cyclohexane-1,3'-[1,2,4]trioxolane-5',2''-tricyclo[3.3.1.13,7]decan]-4-one], the IC50 in data set [1] (48 h) turned out to be 354 ± 8.4 µM; in data set [2] (48 h), 378.9 ± 2.8 µM. The CC50 at 48 h in data set [3] (setting [8]) was determined as 519 ± 140 µM; in data set [4] (setting [9]), 713 ± 18.4 µM.

As to `OCC1CCC2(CC1)OOC1(O2)C2CC3CC(C2)CC1C3` (stereo not drawn) [LC93], the IC50 in data set [1] (48 h incubation, MTT) was 153 ± 22.4 µM; in data set [2] (48 h incubation, MTT), 435 ± 22.7 µM. Further, the CC50 at 48 h in data set [3] (setting [10]) was 12 ± 0.5 µM; in data set [4] (setting [11]) it was 185 ± 16.1 µM.

With `O=S1(=O)N=C(OCC2CCC3(CC2)OOC2(O3)C3CC4CC(C3)CC2C4)c2ccccc21` (stereo not drawn) [LC129], the IC50 in data set [2] (48 h incubation, MTT) came out at 266 ± 13.3 µM. Also, the values for the CC50 at 48 h in data set [3] (setting [10]) and in data set [4] (setting [11]) were 323 ± 24.5 µM and 356 ± 31.4 µM, respectively.

In the case of `Cn1nnc(NCC2CCC3(CC2)OOC2(O3)C3CC4CC(C3)CC2C4)n1` (stereo not drawn) [LC131], the IC50 in data set [1] (48 h incubation, MTT) came to 124 ± 19 µM; in data set [2] (48 h incubation, MTT) it was 321 ± 11.8 µM. Also, the CC50 at 48 h is 34.1 ± 14.5 µM in data set [3] (setting [10]) and 78.2 ± 14.1 µM in data set [4] (setting [11]).

As to `c1ccc(-n2nnnc2OCC2CCC3(CC2)OOC2(O3)C3CC4CC(C3)CC2C4)cc1` (stereo not drawn) [LC132], the IC50 in data set [1] (48 h incubation, MTT) amounted to 14.3 ± 5.5 µM; in data set [2] (48 h incubation, MTT), 13 ± 1.7 µM; in data set [6] (setting [12]) it was 9.4 ± 0.1 µM; in data set [7] (setting [12]), 13.2 ± 5.2 µM. For the same molecule, in data set [5], the “genomic DNA fragmentation” value is reported as “did not produce DNA fragmentation”. The half-maximal cytotoxic concentration (CC50) at 48 h stood at 45.8 ± 19.9 µM in data set [3] (setting [10]) and 99.8 ± 16.4 µM in data set [4] (setting [11]).

As to `C1C2CC3CC1CC(C2)C31OOC2(CCC(Nc3nnn[nH]3)CC2)O1` (stereo not drawn) [LC136, N-1H-1,2,3,4-Tetraazol-5-yl-dispiro[cyclohexane-1,3'-[1,2,4]trioxolane-5',2''-tricyclo[3.3.1.13,7]decan]-4-ylamine], the IC50 was found to be 232 ± 28.4 µM in data set [1] (48 h incubation, MTT) and 434 ± 6.4 µM in data set [2] (48 h incubation, MTT). Besides, the results for the CC50 at 48 h in data set [3] (setting [10]) and in data set [4] (setting [11]) were 113 ± 13.8 µM and 250 ± 4.1 µM, respectively.

On to `C1CCC2(CC1)OOC1(OO2)C2CC3CC(C2)CC1C3` [LC137], for which the IC50 worked out at 143 ± 16.5 µM in data set [1] (48 h); 137.1 ± 0.2 µM in data set [2] (48 h); 88.3 ± 14.2 µM in data set [6] (J774.A1, 48 h); 168 ± 8.9 µM in data set [7] (J774.A1, 48 h). The results for the CC50 at 48 h in data set [3] (setting [8]) and in data set [4] (setting [9]) were 443 ± 44 µM and 3569 ± 22 µM, respectively.

`C1CC2(CCN1)OOC1(OO2)C2CC3CC(C2)CC1C3` [LC139]: the IC50 in data set [1] (48 h) is 507 ± 53.3 µM; in data set [2] (48 h) it was 472 ± 39.2 µM. Also, the results for the CC50 at 48 h in data set [3] (setting [8]) and in data set [4] (setting [9]) were 913 ± 70.7 µM and 115 ± 11.4 µM, respectively.

On to `O=C1CCC2(CC1)OOC1(OO2)C2CC3CC(C2)CC1C3` [LC140], for which the IC50 in data set [1] (48 h incubation, MTT) stood at 460 ± 38.3 µM; in data set [2] (48 h incubation, MTT) it was 258 ± 6.4 µM. Besides, the CC50 at 48 h in data set [3] (setting [10]) stood at 678 ± 29.9 µM; in data set [4] (setting [11]), 1400 ± 76 µM.

`OCC1CCC2(CC1)OOC1(OO2)C2CC3CC(C2)CC1C3` (stereo not drawn) [LC146]: the IC50 in data set [1] (48 h incubation, MTT) came out at 793 ± 37.2 µM; in data set [2] (48 h incubation, MTT), 492 ± 22.7 µM. The CC50 at 48 h was 1465 ± 13 µM in data set [3] (setting [10]) and 3220 ± 72 µM in data set [4] (setting [11]).

Regarding `C1C2CC3CC1CC(C2)C31OOC2(CCC(Nc3nnn[nH]3)CC2)OO1` (stereo not drawn) [LC163], the IC50 is 532 ± 105 µM in data set [1] (48 h incubation, MTT) and 190 ± 21.6 µM in data set [2] (48 h incubation, MTT). Also, the CC50 at 48 h in data set [3] (setting [10]) was found to be 474 ± 83.5 µM; in data set [4] (setting [11]) it was 753 ± 90.3 µM.

For the molecule `CCCCCCCCCCCCCCCCOP(=O)([O-])OCC[N+](C)(C)C` [Miltefosine, reference compound], the IC50 in data set [1] (48 h incubation, MTT) is 24.2 ± 10 µM; in data set [2] (48 h incubation, MTT) it was 149 ± 3.5 µM; in data set [6] (setting [12]) it was 13.3 ± 3 µM; in data set [7] (setting [12]), 16.8 ± 11.7 µM. The CC50 at 48 h turned out to be 94.4 ± 17.3 µM in data set [3] and 100 ± 12.1 µM in data set [4].

Usually IC50 stands for the concentration needed to halve the response being measured. In general, CC50 refers to the concentration at which the toxic effect on the cells reaches its halfway point.
